# Data published in ChEMBL document CHEMBL5678818, “Discovery of potent SOS1 inhibitors that block RAS activation via disruption of the RAS-SOS1 interaction” (Proc Natl Acad Sci U S A, 2019).
# Key:
# [1] = test system: Tyrosine-protein kinase ABL1 (Homo sapiens), P00519 [T315I]; test: Inhibition of phosphorylated ABL1 T315I mutant (unknown origin) assessed as residual activity at 100 nM by KINOMEscan analysis relative to control
# [2] = biological target: Casein kinase I isoform gamma-1 (Homo sapiens) (UniProt Q9HCP0); test: Inhibition of CSNK1G1 (unknown origin) assessed as residual activity at 100 nM by KINOMEscan analysis relative to control
# Chain of Casein kinase I isoform gamma-1 (Homo sapiens) (Q9HCP0 whole entry, looked up, canonical isoform): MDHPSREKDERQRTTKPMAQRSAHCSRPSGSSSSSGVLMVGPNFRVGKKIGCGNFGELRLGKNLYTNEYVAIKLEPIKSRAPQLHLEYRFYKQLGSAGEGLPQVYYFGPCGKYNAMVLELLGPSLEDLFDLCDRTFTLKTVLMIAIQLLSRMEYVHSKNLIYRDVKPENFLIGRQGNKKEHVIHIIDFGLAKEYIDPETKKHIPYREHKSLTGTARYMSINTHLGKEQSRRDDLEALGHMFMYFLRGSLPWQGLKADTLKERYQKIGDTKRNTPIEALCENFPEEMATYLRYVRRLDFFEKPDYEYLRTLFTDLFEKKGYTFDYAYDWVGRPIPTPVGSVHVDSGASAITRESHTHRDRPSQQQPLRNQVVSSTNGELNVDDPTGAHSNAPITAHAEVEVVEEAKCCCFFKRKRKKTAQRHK
# [3] = biological target: T1, Tyrosine-protein kinase receptor TYRO3 (Homo sapiens) (UniProt Q06418); test: Inhibition of TYRO3 (unknown origin) assessed as residual activity at 100 nM by KINOMEscan analysis relative to control
# T1 sequence (whole entry): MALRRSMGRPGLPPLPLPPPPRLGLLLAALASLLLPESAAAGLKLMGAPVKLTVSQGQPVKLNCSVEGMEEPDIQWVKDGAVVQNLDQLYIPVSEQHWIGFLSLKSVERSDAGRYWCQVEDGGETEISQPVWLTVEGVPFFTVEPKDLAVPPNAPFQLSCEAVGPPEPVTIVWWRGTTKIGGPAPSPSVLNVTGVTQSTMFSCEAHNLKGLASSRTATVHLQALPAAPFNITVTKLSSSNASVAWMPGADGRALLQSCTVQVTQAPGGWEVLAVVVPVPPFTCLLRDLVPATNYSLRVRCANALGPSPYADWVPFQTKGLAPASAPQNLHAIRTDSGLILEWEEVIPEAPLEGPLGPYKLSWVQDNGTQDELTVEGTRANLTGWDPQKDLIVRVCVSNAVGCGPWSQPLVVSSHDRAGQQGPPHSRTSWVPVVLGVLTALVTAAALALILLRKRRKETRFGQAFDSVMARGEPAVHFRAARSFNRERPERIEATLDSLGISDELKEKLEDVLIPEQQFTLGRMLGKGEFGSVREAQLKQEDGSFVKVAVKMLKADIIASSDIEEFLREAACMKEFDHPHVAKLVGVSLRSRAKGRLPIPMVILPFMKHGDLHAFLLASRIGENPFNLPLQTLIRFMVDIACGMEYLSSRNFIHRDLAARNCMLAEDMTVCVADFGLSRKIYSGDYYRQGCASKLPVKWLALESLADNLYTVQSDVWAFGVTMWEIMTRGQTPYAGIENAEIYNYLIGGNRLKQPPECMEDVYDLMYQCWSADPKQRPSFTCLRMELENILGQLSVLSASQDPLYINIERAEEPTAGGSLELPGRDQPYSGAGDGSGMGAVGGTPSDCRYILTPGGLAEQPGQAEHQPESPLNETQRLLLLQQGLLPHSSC
# [4] = biological target: SRSF protein kinase 2 (Homo sapiens) (UniProt P78362); test: Inhibition of SRPK2 (unknown origin) assessed as residual activity at 100 nM by KINOMEscan analysis relative to control
# Chain of SRSF protein kinase 2 (Homo sapiens) (P78362 whole entry, looked up): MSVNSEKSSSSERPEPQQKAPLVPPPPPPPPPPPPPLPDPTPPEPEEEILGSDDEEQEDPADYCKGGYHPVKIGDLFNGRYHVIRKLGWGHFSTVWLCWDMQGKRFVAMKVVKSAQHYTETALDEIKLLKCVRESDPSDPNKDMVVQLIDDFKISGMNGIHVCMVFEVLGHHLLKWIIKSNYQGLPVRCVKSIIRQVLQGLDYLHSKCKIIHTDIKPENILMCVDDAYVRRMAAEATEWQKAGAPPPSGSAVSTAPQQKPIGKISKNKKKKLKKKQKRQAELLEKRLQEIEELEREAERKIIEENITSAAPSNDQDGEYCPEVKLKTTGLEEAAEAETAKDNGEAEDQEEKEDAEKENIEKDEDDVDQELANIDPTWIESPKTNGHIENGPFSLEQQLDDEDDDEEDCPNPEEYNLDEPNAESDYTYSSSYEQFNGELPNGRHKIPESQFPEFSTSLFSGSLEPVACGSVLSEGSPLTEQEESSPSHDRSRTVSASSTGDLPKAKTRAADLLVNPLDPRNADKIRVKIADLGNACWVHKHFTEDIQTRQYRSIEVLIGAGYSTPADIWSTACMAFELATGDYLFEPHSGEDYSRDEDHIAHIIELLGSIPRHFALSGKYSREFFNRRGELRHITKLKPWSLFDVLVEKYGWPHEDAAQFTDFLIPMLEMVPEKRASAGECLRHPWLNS
# [5] = test system: Epidermal growth factor receptor (Homo sapiens), P00533 [UNDEFINED MUTATION]; test: Inhibition of EGFR L747-E749del/A750P mutant (unknown origin) assessed as residual activity at 100 nM by KINOMEscan analysis relative to control
# Chain of Epidermal growth factor receptor (Homo sapiens), P00533 [UNDEFINED MUTATION] (P00533 whole entry, looked up, stated change not applied): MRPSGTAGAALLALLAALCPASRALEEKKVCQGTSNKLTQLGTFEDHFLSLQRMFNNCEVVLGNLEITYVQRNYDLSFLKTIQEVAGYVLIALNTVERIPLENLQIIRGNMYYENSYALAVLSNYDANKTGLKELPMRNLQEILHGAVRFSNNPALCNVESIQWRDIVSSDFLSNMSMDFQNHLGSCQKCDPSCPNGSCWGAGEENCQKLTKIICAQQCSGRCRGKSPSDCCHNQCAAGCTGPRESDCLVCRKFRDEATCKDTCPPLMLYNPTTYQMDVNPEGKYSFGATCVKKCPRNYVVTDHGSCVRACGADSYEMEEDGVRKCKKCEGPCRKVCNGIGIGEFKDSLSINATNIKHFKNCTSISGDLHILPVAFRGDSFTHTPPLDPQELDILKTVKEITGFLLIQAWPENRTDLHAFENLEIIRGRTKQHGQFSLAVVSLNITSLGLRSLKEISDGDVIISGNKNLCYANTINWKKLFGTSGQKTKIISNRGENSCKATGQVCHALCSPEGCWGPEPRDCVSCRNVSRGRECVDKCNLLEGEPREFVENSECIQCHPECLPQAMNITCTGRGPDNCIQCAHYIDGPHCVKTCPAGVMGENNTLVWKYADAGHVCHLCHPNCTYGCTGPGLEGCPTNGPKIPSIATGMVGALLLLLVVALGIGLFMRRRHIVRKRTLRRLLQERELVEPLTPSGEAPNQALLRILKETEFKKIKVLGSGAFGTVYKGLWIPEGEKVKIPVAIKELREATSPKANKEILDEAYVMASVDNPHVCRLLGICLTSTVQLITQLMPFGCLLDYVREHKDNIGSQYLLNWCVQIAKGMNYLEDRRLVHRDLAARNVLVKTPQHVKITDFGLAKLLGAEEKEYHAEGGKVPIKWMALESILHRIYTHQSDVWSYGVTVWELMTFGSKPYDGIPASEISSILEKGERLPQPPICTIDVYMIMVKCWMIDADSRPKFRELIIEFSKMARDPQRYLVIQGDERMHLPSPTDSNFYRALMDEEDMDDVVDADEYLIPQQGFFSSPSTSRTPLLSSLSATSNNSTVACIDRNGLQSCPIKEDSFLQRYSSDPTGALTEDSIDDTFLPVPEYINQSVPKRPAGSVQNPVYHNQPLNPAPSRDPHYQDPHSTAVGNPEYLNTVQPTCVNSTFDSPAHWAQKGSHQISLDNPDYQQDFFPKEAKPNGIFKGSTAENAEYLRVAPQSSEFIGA
# [6] = biological target: Serine/threonine-protein kinase WNK1 (Homo sapiens) (UniProt Q9H4A3); test: Inhibition of WNK1 (unknown origin) assessed as residual activity at 100 nM by KINOMEscan analysis relative to control
# [7] = biological target: Death-associated protein kinase 3 (Homo sapiens) (UniProt O43293); test: Inhibition of DAPK3 (unknown origin) assessed as residual activity at 100 nM by KINOMEscan analysis relative to control
# Chain of Death-associated protein kinase 3 (Homo sapiens) (O43293 whole entry, looked up): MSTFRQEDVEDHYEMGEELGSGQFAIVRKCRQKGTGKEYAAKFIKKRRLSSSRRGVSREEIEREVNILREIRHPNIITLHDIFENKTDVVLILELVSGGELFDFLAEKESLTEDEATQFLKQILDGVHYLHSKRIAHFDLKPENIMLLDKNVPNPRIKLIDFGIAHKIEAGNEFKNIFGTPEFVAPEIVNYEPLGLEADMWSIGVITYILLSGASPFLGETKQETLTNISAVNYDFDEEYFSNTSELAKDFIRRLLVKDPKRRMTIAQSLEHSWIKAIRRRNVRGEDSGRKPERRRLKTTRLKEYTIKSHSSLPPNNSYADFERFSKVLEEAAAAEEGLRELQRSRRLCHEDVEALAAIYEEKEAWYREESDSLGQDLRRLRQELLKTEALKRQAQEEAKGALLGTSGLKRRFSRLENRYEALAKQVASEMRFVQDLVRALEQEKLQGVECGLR
# [8] = biological target: T2, Tyrosine-protein kinase ZAP-70 (Homo sapiens) (UniProt P43403); test: Inhibition of ZAP70 (unknown origin) assessed as residual activity at 100 nM by KINOMEscan analysis relative to control
# T2 sequence (whole entry): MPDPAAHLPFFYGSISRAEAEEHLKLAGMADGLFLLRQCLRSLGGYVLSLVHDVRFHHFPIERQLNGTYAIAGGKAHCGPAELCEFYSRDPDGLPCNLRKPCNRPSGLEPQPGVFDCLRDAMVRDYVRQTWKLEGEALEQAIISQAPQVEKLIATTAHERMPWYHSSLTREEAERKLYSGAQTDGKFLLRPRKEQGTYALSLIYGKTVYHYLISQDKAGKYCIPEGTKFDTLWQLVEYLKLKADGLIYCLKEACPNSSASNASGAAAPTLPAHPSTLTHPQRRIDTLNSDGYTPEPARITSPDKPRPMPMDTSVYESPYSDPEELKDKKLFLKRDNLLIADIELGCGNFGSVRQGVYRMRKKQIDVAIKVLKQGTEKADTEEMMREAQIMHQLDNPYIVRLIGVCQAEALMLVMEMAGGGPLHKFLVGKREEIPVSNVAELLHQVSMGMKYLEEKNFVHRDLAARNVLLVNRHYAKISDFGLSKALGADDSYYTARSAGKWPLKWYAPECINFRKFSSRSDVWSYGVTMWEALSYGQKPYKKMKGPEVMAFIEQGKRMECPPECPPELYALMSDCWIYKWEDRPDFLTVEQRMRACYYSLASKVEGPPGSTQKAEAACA
# [9] = biological target: Mitogen-activated protein kinase 6 (Homo sapiens) (UniProt Q16659); test: Inhibition of ERK3 (unknown origin) assessed as residual activity at 100 nM by KINOMEscan analysis relative to control
# Chain of Mitogen-activated protein kinase 6 (Homo sapiens) (Q16659 whole entry, canonical isoform): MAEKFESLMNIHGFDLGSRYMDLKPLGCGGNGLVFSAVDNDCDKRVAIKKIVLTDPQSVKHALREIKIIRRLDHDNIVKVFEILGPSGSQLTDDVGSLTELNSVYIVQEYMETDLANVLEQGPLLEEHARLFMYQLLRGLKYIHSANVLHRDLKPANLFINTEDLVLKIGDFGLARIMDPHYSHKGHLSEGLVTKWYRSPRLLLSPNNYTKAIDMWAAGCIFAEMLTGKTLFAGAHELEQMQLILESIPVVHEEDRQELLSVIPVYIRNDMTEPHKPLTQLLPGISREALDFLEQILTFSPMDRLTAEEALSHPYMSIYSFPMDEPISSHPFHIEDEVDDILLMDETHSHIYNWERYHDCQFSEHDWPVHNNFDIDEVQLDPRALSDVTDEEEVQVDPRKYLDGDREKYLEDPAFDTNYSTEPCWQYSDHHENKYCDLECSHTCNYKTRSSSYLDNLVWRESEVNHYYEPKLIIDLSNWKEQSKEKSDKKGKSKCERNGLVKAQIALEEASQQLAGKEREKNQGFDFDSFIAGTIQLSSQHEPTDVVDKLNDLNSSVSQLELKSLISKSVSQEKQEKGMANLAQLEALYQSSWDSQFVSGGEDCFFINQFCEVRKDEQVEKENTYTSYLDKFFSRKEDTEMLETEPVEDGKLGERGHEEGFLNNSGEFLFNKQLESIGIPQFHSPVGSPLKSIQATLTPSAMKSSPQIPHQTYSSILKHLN
# [10] = biological target: Phosphatidylinositol 4,5-bisphosphate 3-kinase catalytic subunit gamma isoform (Homo sapiens) (UniProt P48736); test: Inhibition of PIK3CG (unknown origin) assessed as residual activity at 100 nM by KINOMEscan analysis relative to control
# Chain of Phosphatidylinositol 4,5-bisphosphate 3-kinase catalytic subunit gamma isoform (Homo sapiens) (P48736 whole entry, looked up, canonical isoform): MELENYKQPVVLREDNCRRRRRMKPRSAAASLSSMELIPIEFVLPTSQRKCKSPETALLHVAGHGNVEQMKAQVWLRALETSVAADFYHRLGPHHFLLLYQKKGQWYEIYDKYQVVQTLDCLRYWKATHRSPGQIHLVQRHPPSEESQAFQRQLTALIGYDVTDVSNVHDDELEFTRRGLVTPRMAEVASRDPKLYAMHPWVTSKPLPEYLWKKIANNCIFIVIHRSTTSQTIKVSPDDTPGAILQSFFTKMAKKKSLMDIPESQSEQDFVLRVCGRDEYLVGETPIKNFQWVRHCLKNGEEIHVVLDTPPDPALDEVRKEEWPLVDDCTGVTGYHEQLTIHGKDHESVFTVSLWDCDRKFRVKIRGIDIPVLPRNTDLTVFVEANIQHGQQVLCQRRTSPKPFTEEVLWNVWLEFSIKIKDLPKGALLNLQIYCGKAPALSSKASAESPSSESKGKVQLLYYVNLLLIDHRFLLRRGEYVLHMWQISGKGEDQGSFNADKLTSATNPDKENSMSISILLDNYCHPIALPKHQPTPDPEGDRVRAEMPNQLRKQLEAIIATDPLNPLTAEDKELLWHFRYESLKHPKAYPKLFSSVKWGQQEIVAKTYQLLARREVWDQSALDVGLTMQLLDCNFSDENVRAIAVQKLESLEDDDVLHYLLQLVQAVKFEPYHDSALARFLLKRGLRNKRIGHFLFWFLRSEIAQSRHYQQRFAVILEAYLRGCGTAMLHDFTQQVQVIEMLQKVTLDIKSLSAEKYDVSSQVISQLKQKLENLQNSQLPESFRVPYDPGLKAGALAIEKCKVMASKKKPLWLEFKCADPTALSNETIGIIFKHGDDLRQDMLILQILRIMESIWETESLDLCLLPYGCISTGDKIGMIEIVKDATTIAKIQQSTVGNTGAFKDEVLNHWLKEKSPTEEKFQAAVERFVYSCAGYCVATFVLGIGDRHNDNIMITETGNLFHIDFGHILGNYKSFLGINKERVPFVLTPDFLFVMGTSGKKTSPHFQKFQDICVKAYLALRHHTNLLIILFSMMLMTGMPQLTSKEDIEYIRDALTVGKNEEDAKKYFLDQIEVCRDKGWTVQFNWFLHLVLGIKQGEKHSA
# [11] = biological target: T3, Serine/threonine-protein kinase 17A (Homo sapiens) (UniProt Q9UEE5); test: Inhibition of DRAK1 (unknown origin) assessed as residual activity at 100 nM by KINOMEscan analysis relative to control
# T3 sequence (whole entry): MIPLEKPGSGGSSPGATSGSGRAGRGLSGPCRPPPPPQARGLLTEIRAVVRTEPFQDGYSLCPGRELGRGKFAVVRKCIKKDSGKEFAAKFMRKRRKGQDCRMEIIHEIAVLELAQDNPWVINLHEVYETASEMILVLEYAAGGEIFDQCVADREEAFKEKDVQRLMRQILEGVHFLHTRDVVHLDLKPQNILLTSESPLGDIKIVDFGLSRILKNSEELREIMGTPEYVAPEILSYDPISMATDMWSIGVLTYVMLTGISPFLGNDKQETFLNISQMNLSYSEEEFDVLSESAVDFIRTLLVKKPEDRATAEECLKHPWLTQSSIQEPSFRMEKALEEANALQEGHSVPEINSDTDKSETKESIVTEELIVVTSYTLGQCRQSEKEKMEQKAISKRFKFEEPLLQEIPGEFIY
compound,measurement,setting,value
COc1cc2ncnc(N[C@H](C)c3cccc4ccccc34)c2cc1OC,Activity,[1],89%
same,Activity,[2],99%
same,Activity,[3],76%
same,Activity,[4],92%
same,Activity,[5],92%
same,Activity,[6],83%
same,Activity,[7],100%
same,Activity,[8],77%
same,Activity,[9],40%
same,Activity,[10],78%
same,Activity,[11],100%
